Several values for one entry are separate records, joined by “and”; a condition that tells them apart may be missing. Equal entries are not always repeated.
Tested on: 855422-203-R-J1-PDC spheroids with HUVEC/MSC, viability
Assay: Anticancer human tumor 855422-203-R-J1-PDC patient-derived bladder carcinoma cell line growth inhibition [PI3K]
Details: for viability, T/C: stronger effect = lower value
Summary of the method: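 Targeted small molecules plus PI3K inhibitors, half-log dose series from Cmax (default top 10 microM), were applied to heterotypic spheroids of cancer cells with HUVEC and MSCs. Viability indicated growth inhibition.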

[1] = curve of first compound, second compound 0.0316 µM
[2] = curve of first compound, second compound 0.1 µM
[3] = curve of first compound, second compound 0.316 µM
[4] = curve of first compound, second compound 1 µM
[5] = curve of first compound, second compound 3.16 µM
[6] = curve of first compound, second compound 10 µM
[7] = second compound 0.0316 µM, first compound 0.00316 µM
[8] = second compound 0.0316 µM, first compound 0.01 µM
[9] = second compound 0.0316 µM, first compound 0.0316 µM
[10] = second compound 0.0316 µM, first compound 0.1 µM
[11] = second compound 0.0316 µM, first compound 0.316 µM
[12] = second compound 0.0316 µM, first compound 1 µM
[13] = second compound 0.1 µM, first compound 0.00316 µM
[14] = second compound 0.1 µM, first compound 0.01 µM
[15] = second compound 0.1 µM, first compound 0.0316 µM
[16] = second compound 0.1 µM, first compound 0.1 µM
[17] = second compound 0.1 µM, first compound 0.316 µM
[18] = second compound 0.1 µM, first compound 1 µM
[19] = second compound 0.316 µM, first compound 0.00316 µM
[20] = second compound 0.316 µM, first compound 0.01 µM
[21] = second compound 0.316 µM, first compound 0.0316 µM
[22] = second compound 0.316 µM, first compound 0.1 µM
[23] = second compound 0.316 µM, first compound 0.316 µM
[24] = second compound 0.316 µM, first compound 1 µM
[25] = second compound 1 µM, first compound 0.00316 µM
[26] = second compound 1 µM, first compound 0.01 µM
[27] = second compound 1 µM, first compound 0.0316 µM
[28] = second compound 1 µM, first compound 0.1 µM
[29] = second compound 1 µM, first compound 0.316 µM
[30] = second compound 1 µM, first compound 1 µM
[31] = second compound 3.16 µM, first compound 0.00316 µM
[32] = second compound 3.16 µM, first compound 0.01 µM
[33] = second compound 3.16 µM, first compound 0.0316 µM
[34] = second compound 3.16 µM, first compound 0.1 µM
[35] = second compound 3.16 µM, first compound 0.316 µM
[36] = second compound 3.16 µM, first compound 1 µM
[37] = second compound 10 µM, first compound 0.00316 µM
[38] = second compound 10 µM, first compound 0.01 µM
[39] = second compound 10 µM, first compound 0.0316 µM
[40] = second compound 10 µM, first compound 0.1 µM
[41] = second compound 10 µM, first compound 0.316 µM
[42] = second compound 10 µM, first compound 1 µM
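Further: agents incubated with spheroids for one week before read-out.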
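Wherever viability, T/C is given: 100% = DMSO vehicle-treated control wells.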

SMILES: CCN1CCN(Cc2ccc(Nc3ncc(F)c(-c4cc(F)c5nc(C)n(C(C)C)c5c4)n3)nc2)CC1 + CC(Nc1ncnc2nc[nH]c12)c1cc2cccc(Cl)c2c(=O)n1-c1ccccc1
- IC50 [1]: > 1000 nM
- IC50 [2]: > 1000 nM
- IC50 [3]: > 1000 nM
- IC50 [4]: 885 nM
- IC50 [5]: 497 nM
- IC50 [6]: 63 nM
- viability, T/C [7]: 113%
- viability, T/C [8]: 93.7%
- viability, T/C [9]: 108%
- viability, T/C [10]: 88.6%
- viability, T/C [11]: 76.5%
- viability, T/C [12]: 62.2%
- viability, T/C [13]: 108%
- viability, T/C [14]: 97.8%
- viability, T/C [15]: 108%
- viability, T/C [16]: 86.5%
- viability, T/C [17]: 83.1%
- viability, T/C [18]: 62%
- viability, T/C [19]: 95.2%
- viability, T/C [20]: 112%
- viability, T/C [21]: 109%
- viability, T/C [22]: 94.4%
- viability, T/C [23]: 68.2%
- viability, T/C [24]: 53.7%
- viability, T/C [25]: 97.5%
- viability, T/C [26]: 104%
- viability, T/C [27]: 105%
- viability, T/C [28]: 83.1%
- viability, T/C [29]: 69%
- viability, T/C [30]: 47.3%
- viability, T/C [31]: 98.2%
- viability, T/C [32]: 96.6%
- viability, T/C [33]: 89.8%
- viability, T/C [34]: 75.7%
- viability, T/C [35]: 51.5%
- viability, T/C [36]: 46.2%
- viability, T/C [37]: 81.9%
- viability, T/C [38]: 83.2%
- viability, T/C [39]: 55.2%
- viability, T/C [40]: 44.9%
- viability, T/C [41]: 34.9%
- viability, T/C [42]: 25.9%

SMILES: CC(C)NCC(C(=O)N1CCN(c2ncnc3c2C(C)CC3O)CC1)c1ccc(Cl)cc1 (stereo not given)
- viability, T/C (compound 0.0316 µM): 93.1% [middle of 4 runs]
- viability, T/C (compound 0.1 µM): 82.9% [middle of 4 runs]
- viability, T/C (compound 0.316 µM): 78.5% [middle of 4 runs]
- viability, T/C (compound 1 µM): 51.7% [middle of 4 runs]
- viability, T/C (compound 3.16 µM): 36.8% [middle of 4 runs]
- viability, T/C (compound 10 µM): 19.9% (2×) and 18.6% and 19.6%
- IC50 (curve of compound): 1.25 µM [middle of 4 runs]

SMILES: CCN1CCN(Cc2ccc(Nc3ncc(F)c(-c4cc(F)c5nc(C)n(C(C)C)c5c4)n3)nc2)CC1 + Cc1nc(NC(=O)N2CCCC2C(N)=O)sc1-c1ccnc(C(C)(C)C(F)(F)F)c1
- IC50 [1]: 558 nM
- IC50 [2]: 816 nM
- IC50 [3]: 141 nM
- IC50 [4]: 12 nM
- IC50 [5]: < 3.16 nM
- IC50 [6]: < 3.16 nM
- viability, T/C [7]: 102%
- viability, T/C [8]: 80.5%
- viability, T/C [9]: 97.1%
- viability, T/C [10]: 70.4%
- viability, T/C [11]: 60.1%
- viability, T/C [12]: 40.6%
- viability, T/C [13]: 99.9%
- viability, T/C [14]: 90.3%
- viability, T/C [15]: 86%
- viability, T/C [16]: 67.7%
- viability, T/C [17]: 60.6%
- viability, T/C [18]: 47.7%
- viability, T/C [19]: 80.3%
- viability, T/C [20]: 79.7%
- viability, T/C [21]: 65.1%
- viability, T/C [22]: 54.9%
- viability, T/C [23]: 40.4%
- viability, T/C [24]: 28.2%
- viability, T/C [25]: 57.2%
- viability, T/C [26]: 56.2%
- viability, T/C [27]: 35.2%
- viability, T/C [28]: 34.7%
- viability, T/C [29]: 22%
- viability, T/C [30]: 20.2%
- viability, T/C [31]: 37.1%
- viability, T/C [32]: 36.4%
- viability, T/C [33]: 20.3%
- viability, T/C [34]: 18.8%
- viability, T/C [35]: 15.4%
- viability, T/C [36]: 16.1%
- viability, T/C [37]: 18.5%
- viability, T/C [38]: 12.4%
- viability, T/C [39]: 13.6%
- viability, T/C [40]: 12.1%
- viability, T/C [41]: 9.73%
- viability, T/C [42]: 11.2%

SMILES: Cn1ncc(Cl)c1-c1cc(C(=O)NC(CN)Cc2cccc(F)c2)sc1Cl (stereo not given)
- viability, T/C (compound 0.0316 µM): 93.2% [middle of 4 runs]
- viability, T/C (compound 0.1 µM): 75.2% [middle of 4 runs]
- viability, T/C (compound 0.316 µM): 69.4% [middle of 4 runs]
- viability, T/C (compound 1 µM): 49.7% [middle of 4 runs]
- viability, T/C (compound 3.16 µM): 28.2% [middle of 4 runs]
- viability, T/C (compound 10 µM): 8.18% [middle of 4 runs]
- IC50 (curve of compound): 936 nM [middle of 4 runs]

SMILES: C[C@@H](NC(=O)c1ncnc(N)c1Cl)c1ncc(C(=O)Nc2cc(C(F)(F)F)c(Cl)cn2)s1 + Cc1nc(NC(=O)N2CCCC2C(N)=O)sc1-c1ccnc(C(C)(C)C(F)(F)F)c1
- IC50 [1]: > 10000 nM
- IC50 [2]: > 10000 nM
- IC50 [3]: > 10000 nM
- IC50 [4]: 4570 nM
- IC50 [5]: < 31.6 nM
- IC50 [6]: < 31.6 nM
- viability, T/C [9]: 97.8%
- viability, T/C [10]: 85.9%
- viability, T/C [11]: 118%
- viability, T/C [12]: 100%
- viability, T/C (second compound 0.0316 µM, first compound 3.16 µM): 118%
- viability, T/C (second compound 0.0316 µM, first compound 10 µM): 109%
- viability, T/C [15]: 72.7%
- viability, T/C [16]: 86.8%
- viability, T/C [17]: 104%
- viability, T/C [18]: 91.2%
- viability, T/C (second compound 0.1 µM, first compound 3.16 µM): 111%
- viability, T/C (second compound 0.1 µM, first compound 10 µM): 93.4%
- viability, T/C [21]: 73.1%
- viability, T/C [22]: 85.9%
- viability, T/C [23]: 94.3%
- viability, T/C [24]: 85.8%
- viability, T/C (second compound 0.316 µM, first compound 3.16 µM): 94.6%
- viability, T/C (second compound 0.316 µM, first compound 10 µM): 60.9%
- viability, T/C [27]: 70.1%
- viability, T/C [28]: 67.2%
- viability, T/C [29]: 51.2%
- viability, T/C [30]: 68.6%
- viability, T/C (second compound 1 µM, first compound 3.16 µM): 62.3%
- viability, T/C (second compound 1 µM, first compound 10 µM): 23.4%
- viability, T/C [33]: 39.3%
- viability, T/C [34]: 44.6%
- viability, T/C [35]: 30.9%
- viability, T/C [36]: 42.8%
- viability, T/C (second compound 3.16 µM, first compound 3.16 µM): 33.5%
- viability, T/C (second compound 3.16 µM, first compound 10 µM): 14.3%
- viability, T/C [39]: 25%
- viability, T/C [40]: 18.9%
- viability, T/C [41]: 24.3%
- viability, T/C [42]: 18.8%
- viability, T/C (second compound 10 µM, first compound 3.16 µM): 11.7%
- viability, T/C (second compound 10 µM, first compound 10 µM): 4.33%

Source: PubChem BioAssay AID1963967 (Molecular Pharmacology Branch, DTP, NCI, 2024)
